What was measured:
CD8+ T cells = test: In vitro T-cell priming assay with aAPCs loaded with peptide/MHC complexes and anti-CD28 antibody, pMHC multimer readout; format: cell-based, human; settings: for Donors: percentage of positive donors; for Donors / Wells: HLA-A*02 healthy donors, three stimulation cycles; for Wells: percentage of positive wells
Excerpt: In order to obtain information regarding the immunogenicity of the TUMAPs of the present invention, the inventors performed investigations using an in vitro T-cell priming assay based on repeated stimulations of CD8+ T cells with artificial antigen presenting cells (aAPCs) loaded with peptide/MHC complexes and anti-CD28 antibody.
In order to perform in vitro stimulations by artificial antigen presenting cells loaded with peptide-MHC complex (pMHC) and anti-CD28 antibody, the inventors first isolated CD8+ T cells from fresh HLA-A*02 leukapheresis products via positive selection using CD8 microbeads (Miltenyi Biotech, Bergisch-Gladbach, Germany) of healthy donors obtained from the University clinics Mannheim, Germany, after informed consent.
PBMCs and isolated CD8+ lymphocytes were incubated in T-cell medium (TCM) until use consisting of RPMI-Glutamax (Invitrogen, Karlsruhe, Germany) supplemented with 10% heat inactivated human AB serum (PAN-Biotech, Aidenbach, Germany), 100 U/ml Penicillin/100 μg/ml Streptomycin (Cambrex, Cologne, Germany), 1 mM sodium pyruvate (CC Pro, Oberdorla, Germany), 20 μg/ml Gentamycin (Cambrex). 2.5 ng/ml IL-7 (PromoCell, Heidelberg, Germany) and 10 U/ml IL-2 (Novartis Pharma, Nürnberg, Germany) were also added to the TCM at this step.
Generation of pMHC/anti-CD28 coated beads, T-cell stimulations and readout was performed in a highly defined in vitro system using four different pMHC molecules per stimulation condition and 8 different pMHC molecules per readout condition.
The purified co-stimulatory mouse IgG2a anti human CD28 Ab 9.3 (Jung et al., 1987) was chemically biotinylated using Sulfo-N-hydroxysuccinimidobiotin as recommended by the manufacturer (Perbio, Bonn, Germany). Beads used were 5.6 μm diameter streptavidin coated polystyrene particles (Bangs Laboratories, Illinois, USA).
pMHC used for positive and negative control stimulations were A*0201/MLA-001 (peptide […] (SEQ ID NO. 157) from modified Melan-A/MART-1) and A*0201/DDX5-001 ([…] from DDX5, SEQ ID NO. 158), respectively.
800.000 beads/200 μl were coated in 96-well plates in the presence of 4×12.5 ng different biotin-pMHC, washed and 600 ng biotin anti-CD28 were added subsequently in a volume of 200 μl. Stimulations were initiated in 96-well plates by co-incubating 1×10^6 CD8+ T cells with 2×10^5 washed coated beads in 200 μl TCM supplemented with 5 ng/ml IL-12 (PromoCell) for 3 days at 37° C. Half of the medium was then exchanged by fresh TCM supplemented with 80 U/ml IL-2 and incubating was continued for 4 days at 37° C. This stimulation cycle was performed for a total of three times. For the pMHC multimer readout using 8 different pMHC molecules per condition, a two-dimensional combinatorial coding approach was used as previously described (Andersen et al., 2012) with minor modifications encompassing coupling to 5 different fluorochromes. Finally, multimeric analyses were performed by staining the cells with Live/dead near IR dye (Invitrogen, Karlsruhe, Germany), CD8-FITC antibody clone SK1 (BD, Heidelberg, Germany) and fluorescent pMHC multimers. For analysis, a BD LSRII SORP cytometer equipped with appropriate lasers and filters was used. Peptide specific cells were calculated as percentage of total CD8+ cells. Evaluation of multimeric analysis was done using the FlowJo software (Tree Star, Oregon, USA). In vitro priming of specific multimer+CD8+ lymphocytes was detected by comparing to negative control stimulations.
Exemplary flow cytometry results after TUMAP-specific multimer staining for 2 peptides of the invention are shown in FIGS. 3A and 3B together with corresponding negative controls. Additional exemplary flow cytometry results after TUMAP-specific multimer staining for 3 peptides of the invention are shown in FIGS. 4A-4C together with corresponding negative controls.

HLA-A*02:01 = HLA-A*02:01 (Homo sapiens, UniProt P04439, D140Y/D185E/D98H/E176V/E277Q/G131W/G231S/I119V/I121R/I166T/I218V/L300P/L318F/N151K/N90K/P208A/P217A/Q86G/Q94H/R138H/R169H/T345S); test: MHC binding assay: UV-ligand exchange with β2m ELISA; settings: binding of HLA-class I restricted peptides to HLA-A*02:01
Excerpt: Candidate peptides for T cell based therapies according to the present invention were further tested for their MHC binding capacity (affinity). The individual peptide-MHC complexes were produced by UV-ligand exchange, where a UV-sensitive peptide is cleaved upon UV-irradiation, and exchanged with the peptide of interest as analyzed. Only peptide candidates that can effectively bind and stabilize the peptide-receptive MHC molecules prevent dissociation of the MHC complexes. To determine the yield of the exchange reaction, an ELISA was performed based on the detection of the light chain (β2m) of stabilized MHC complexes. The assay was performed as generally described in Rodenko et al. (Rodenko et al., 2006).
96 well MAXISorp plates (NUNC) were coated over night with 2 ug/ml streptavidin in PBS at room temperature, washed 4× and blocked for 1 h at 37° C. in 2% BSA containing blocking buffer. Refolded HLA-A*02:01/MLA-001 monomers served as standards, covering the range of 15-500 ng/ml. Peptide-MHC monomers of the UV-exchange reaction were diluted 100-fold in blocking buffer. Samples were incubated for 1 h at 37° C., washed four times, incubated with 2 ug/ml HRP conjugated anti-β2m for 1 h at 37° C., washed again and detected with TMB solution that is stopped with […]. Absorption was measured at 450 nm. Candidate peptides that show a high exchange yield (preferably higher than 50%, most preferred higher than 75%) are generally preferred for a generation and production of antibodies or fragments thereof, and/or T cell receptors or fragments thereof, as they show sufficient avidity to the MHC molecules and prevent dissociation of the MHC complexes.

Substance	Donors (CD8+ T cells)	Wells (CD8+ T cells)	Wells positive [%] (CD8+ T cells; percentage of positive wells among evaluable, HLA-A*02 restricted peptides)	Peptide exchange (MHC class I binding score, peptide exchange yield) (HLA-A*02:01)
145 (LLYGKYVSV; listed as Homo sapiens) [compound 145]	++++ (>=70% = ++++)	++ (20%-49% = ++)	–	–
12 (TLTDEINFL; listed as Homo sapiens) [compound 12]	–	–	+ (<20% = +)	++++ (>75% = ++++)
118 (TLLQEQGTKTV; listed as Homo sapiens) [compound 118]	++ (20%-49% = ++)	+ (<20% = +)	–	–
109 (KIQEILTQV; listed as Homo sapiens) [compound 109]	+++ (50%-69% = +++)	+ (<20% = +)	–	–
113 (NLMASQPQL; listed as Homo sapiens) [compound 113]	++++ (>=70% = ++++)	+++ (50%-69% = +++)	–	–
143 (YVYQNNIYL; listed as Homo sapiens) [compound 143]	++ (20%-49% = ++)	+ (<20% = +)	–	–
108 (SLYNLGGSKRISI; listed as Homo sapiens) [compound 108]	++++ (>=70% = ++++)	+ (<20% = +)	–	–
127 (SLFGKKYIL; listed as Homo sapiens) [compound 127]	++++ (>=70% = ++++)	++ (20%-49% = ++)	–	–
101 (GLLPSAESIKL; listed as Homo sapiens) [compound 101]	++++ (>=70% = ++++)	+ (<20% = +)	–	–
147 (ILMDPSPEYA; listed as Homo sapiens) [compound 147]	++++ (>=70% = ++++)	+++ (50%-69% = +++)	–	–
135 (GLFSQHFNL; listed as Homo sapiens) [compound 135]	++ (20%-49% = ++)	+ (<20% = +)	–	–
98 (SLYKGLLSV; listed as Homo sapiens) [compound 98]	++++ (>=70% = ++++)	++ (20%-49% = ++)	–	–
114 (VLVPYEPPQV; listed as Homo sapiens) [compound 114]	++++ (>=70% = ++++)	+ (<20% = +)	–	–
4 (ILDINDNPPV; listed as Homo sapiens) [compound 4]	–	–	–	+++ (>50 = +++)
137 (GLAPFLLNAV; listed as Homo sapiens) [compound 137]	++++ (>=70% = ++++)	+ (<20% = +)	–	–
105 (STYGGGLSV; listed as Homo sapiens) [compound 105]	++++ (>=70% = ++++)	+ (<20% = +)	–	–
44 (GLGDDSFPI; listed as Homo sapiens) [compound 44]	–	–	–	++++ (>75% = ++++)
47 (QLLEGELETL; listed as Homo sapiens) [compound 47]	–	–	–	+++ (>50 = +++)
75 (ALASAPTSV; listed as Homo sapiens) [compound 75]	–	–	–	++++ (>75% = ++++)
73 (YIDPYKLLPL; listed as Homo sapiens) [compound 73]	–	–	–	+++ (>50 = +++)
66 (TLLSEIAEL; listed as Homo sapiens) [compound 66]	–	–	–	++++ (>75% = ++++)

Substance	Donors (CD8+ T cells)	Wells (CD8+ T cells)	Wells positive [%] (CD8+ T cells; percentage of positive wells among evaluable, HLA-A*02 restricted peptides)	Peptide exchange (MHC class I binding score, peptide exchange yield) (HLA-A*02:01)
150 (ILAEEPIYIRV; listed as Homo sapiens) [compound 150]	++++ (>=70% = ++++)	+++ (50%-69% = +++)	–	–
123 (LLSGDLIFL; listed as Homo sapiens) [compound 123]	++++ (>=70% = ++++)	++ (20%-49% = ++)	–	–
63 (ALMDEINFMKM; listed as Homo sapiens) [compound 63]	–	–	–	++++ (>75% = ++++)
52 (LLFTGLVSGV; listed as Homo sapiens) [compound 52]	–	–	–	+++ (>50 = +++)
85 (QLIEKITQV; listed as Homo sapiens) [compound 85]	–	–	–	+++ (>50 = +++)
38 (KLLPGVQYV; listed as Homo sapiens) [compound 38]	–	–	–	++++ (>75% = ++++)
49 (YLWEAHTNI; listed as Homo sapiens) [compound 49]	–	–	–	++++ (>75% = ++++)
42 (ALYTSGHLL; listed as Homo sapiens) [compound 42]	–	–	–	++++ (>75% = ++++)
154 (KMWEELPEVV; listed as Homo sapiens) [compound 154]	++++ (>=70% = ++++)	+ (<20% = +)	–	–
40 (LLTPLNLQI; listed as Homo sapiens) [compound 40]	–	–	–	+++ (>50 = +++)
46 (GLISSIEAQL; listed as Homo sapiens) [compound 46]	–	–	–	++++ (>75% = ++++)
21 (FLHEPFSSV; listed as Homo sapiens) [compound 21]	–	–	–	++++ (>75% = ++++)
74 (SLTSFLISL; listed as Homo sapiens) [compound 74]	–	–	–	+++ (>50 = +++)
35 (ALVGDVILTV; listed as Homo sapiens) [compound 35]	–	–	–	++++ (>75% = ++++)
62 (ILSSACYTV; listed as Homo sapiens) [compound 62]	–	–	–	++++ (>75% = ++++)
5 (VCPPGGIQEV; listed as Homo sapiens) [compound 5]	–	–	–	+++ (>50 = +++)
2 (PVCPPGGIQEV; listed as Homo sapiens) [compound 2]	–	–	–	+++ (>50 = +++)
69 (YVMESMTYL; listed as Homo sapiens) [compound 69]	–	–	–	++++ (>75% = ++++)
24 (LLIAINPQV; listed as Homo sapiens) [compound 24]	–	–	–	++++ (>75% = ++++)
23 (SLPESGLLSV; listed as Homo sapiens) [compound 23]	–	–	–	+++ (>50 = +++)

From patent publication US10688131B2, “Peptides and scaffolds for use in immunotherapy against head and neck squamous cell carcinoma and other cancers” (Immatics Biotechnologies GmbH, priority 2016, dated 2020)
